In this experiment the target is human OX2R (Homo sapiens (Human), UniProt O43614). The experiment can be described thus: IPOne (IP-1) assay in CHO cells expressing human OX2R. The class given is cell-based. Conditions: for IC50: CHO cells expressing human OX2R, IP-One detection, 2 hours incubation, EC50 = inflection point of four parameter logistic fit, read-out: hOX2R_IP_IC50; for Emax: CHO, read-out: Emax (%). The source says: The utility of the compounds in accordance with the present invention as orexin receptor OX1R and/or OX2R agonists may be readily determined without undue experimentation by methodology well known in the art. Both the OX1R and/or OX2R G-coupled protein receptors (GPCRs) couple through the Gαq signaling pathway, which ultimately promotes calcium mobilization via inositol triphosphate (IP3) production. The half-life of IP-3 is relatively short, being rapidly metabolized to inositol monophosphate (IP-1), which can be readily detected using a commercially available assay kit (IP-One; Cisbio; cat #621PAPEC) coupled with a cell line expressing the target receptor(s) of interest. The utility of the compounds in accordance with the present invention as orexin receptor OX1R and/or OX2R agonists may be determined utilizing this assay.
Chain of human OX2R (O43614 whole entry): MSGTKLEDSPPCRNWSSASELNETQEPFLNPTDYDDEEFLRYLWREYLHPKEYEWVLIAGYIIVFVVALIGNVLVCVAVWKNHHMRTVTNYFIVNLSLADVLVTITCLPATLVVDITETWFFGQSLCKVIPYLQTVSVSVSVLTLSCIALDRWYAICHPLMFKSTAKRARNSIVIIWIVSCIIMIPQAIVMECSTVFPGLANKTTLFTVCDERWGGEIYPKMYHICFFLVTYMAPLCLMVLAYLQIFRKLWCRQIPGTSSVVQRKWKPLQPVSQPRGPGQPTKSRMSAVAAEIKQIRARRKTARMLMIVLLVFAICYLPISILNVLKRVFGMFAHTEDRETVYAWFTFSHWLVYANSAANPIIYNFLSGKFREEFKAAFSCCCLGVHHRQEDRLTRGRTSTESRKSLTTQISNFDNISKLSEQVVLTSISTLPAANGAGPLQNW
In a typical experiment, the OX1 and OX2 receptor agonist activity is determined in accordance with the following general experimental method. Chinese hamster ovary (CHO) cells expressing human OX1R and/or the human OX2R were grown in Iscove's modified DMEM containing glutaMAX™, 1% G418, 100 U/mL penicillin, 100 μg/mL streptomycin and 10% heat-inactivated qualified fetal bovine serum (FBS). The OX2R cells were seeded at 10,000 cells/well/50 μL and the OX1R cells were seeded at 20,000 cells/well/50 μL into 384-well white tissue culture plates (Greiner; cat #781080). All cell/media reagents were from GIBCO-Invitrogen Corp. The seeded cell plate(s) were incubated at 37° C. with 5% CO2 and 85% humidity for 20-24 hours. On the day of the assay, assay-ready compound plates were prepared using an acoustic liquid handler (ECHO; Labcyte), which dispensed sufficient volume of test compound stock (10 mM in DMSO) or 100% DMSO to prepare 10 point, ½-log dilutions in a final volume of 202.5 nL/well in all test wells of a 384-well diamond plate (Labcyte). Following completion of assay-ready plates, importantly, the next three steps were performed with minimal delay: 1) 20 μl of 1× stimulation buffer was added to the compound plate using a Multidrop Combi (small cassette, Thermo Fisher Scientific cat #24073290); 2) culture medium was removed from the cell plate using the Bluewasher plate washer (gentle spin; BlueCatBio); 3) 14 μl of compound/stimulation buffer mixture was added to the cell plate using a Bravo liquid handler (Agilent) prior to incubating cell plates at 37° C. with 5% CO2 and 85% humidity for 1 or 2 hours (OX1R and OX2R, respectively). During this incubation, IP-one detection reagents were prepared (38:1:1 lysis buffer:D2:AB-cryptate reagents). Six μL of mixed detection reagents were added to the cell plate using a Multidrop Combi (small cassette, Thermo Fisher Scientific cat #24073290) and incubated 60 minutes at room temperature in the dark. Fluorescence signal was detected using an Envision plate reader (Perkin Elmer) [LANCE/DELFIA Dual Enh (Em: APC 665; Ex: Cy5 620)].
For each compound, data were fit to a four parameter logistic fit (ActivityBase software) and the EC50 was reported as the inflection point of the resulting curve. Percent effect for each test compound was determined as the percentage of sample raw value/mean max effect, where the mean max effect was derived from the mean raw value of 32 control wells per assay plate (using Orexin A (cat #003-30) at 1 μM for human OX1R and a reference compound at 1 uM with 100% activity previously established by comparison to Orexin A for human OX2R). The intrinsic orexin receptor agonist activity of a compound which may be used in the present invention may be determined by these assays.

Setting [1] is: percentage of mean max effect of a reference compound at 1 uM (100% activity by comparison to Orexin A), human OX2R.

For the compound `COC(=O)N1[C@H](C)C[C@H](NS(=O)(=O)N(C)C)[C@@H]1COC1CCC2(c3ncccn3)CC2C1` (single isomer, unassigned) [Example 186], the IC50 stood at 142 nM. Besides, the Emax (commonly the size of the effect at its maximum, as opposed to the concentration needed) under setting [1] is 99.5%.

On to `CC(C)OC(=O)N1[C@H](C)C[C@H](NS(C)(=O)=O)[C@@H]1CO[C@@H]1CC[C@]2(c3ncc(Cl)cn3)C[C@@H]2C1` (single isomer, unassigned) [Example 150], for which the IC50 was 19.6 nM. Further, under setting [1], the Emax is 102%.

In the case of `CC(C)OC(=O)N1[C@H](C)C[C@H](NS(=O)(=O)CF)[C@@H]1CO[C@H]1CC[C@@]2(c3ncc(Cl)cn3)C[C@H]2C1` (single isomer, unassigned) [Example 95], the IC50 was determined as 1.8 nM. Also, under setting [1], the Emax was 101%.

In the case of `CC(C)OC(=O)N1CCC[C@H](NS(C)(=O)=O)[C@@H]1CO[C@H]1CC[C@@]2(c3ncc(F)cn3)C[C@H]2C1` (single isomer, unassigned) [Example 125], the IC50 turned out to be 0.95 nM. Besides, the maximal response (Emax) under setting [1] worked out at 103%.

For the compound `CC(C)OC(=O)N1[C@H](C)C[C@H](NS(=O)(=O)N(C)C)[C@@H]1COC1CCC2(c3ncccn3)CC2C1` (stereo partly drawn) [Example 8, isopropyl (2R,3S,5R)-3-((N,N-dimethylsulfamoyl)amino)-5-methyl-2-(((6-(pyrimidin-2-yl)bicyclo[4.1.0]heptan-3-yl)oxy)methyl)pyrrolidine-1-carboxylate], under setting [1], the “Emax (%)” value turned out to be 95.4%.

For `COC(=O)N1[C@H](C)C[C@H](NS(C)(=O)=O)[C@@H]1CO[C@H]1CC[C@@]2(c3ncc(Cl)cn3)C[C@H]2C1` [Example 142, methyl (2R,3S,5R)-2-((((1S,3S,6R)-6-(5-chloropyrimidin-2-yl)bicyclo[4.1.0]heptan-3-yl)oxy)methyl)-5-methyl-3-(methylsulfonamido)pyrrolidine-1-carboxylate], under setting [1], the Emax was found to be 102%.

Turning to `CC(C)OC(=O)N1[C@H](C)C[C@H](NS(C)(=O)=O)[C@@H]1COC1CCC2(c3ncc(F)cn3)CC2C1` (mixture of isomers) [Example 26, isopropyl (2R,3S,5R)-2-(((6-(5-fluoropyrimidin-2-yl)bicyclo[4.1.0]heptan-3-yl)oxy)methyl)-5-methyl-3-(methylsulfonamido)pyrrolidine-1-carboxylate], the IC50 was found to be 11.4 nM. The Emax under setting [1] is 101%.

As to `CC(C)OC(=O)N1[C@H](C)C[C@H](NS(=O)(=O)C(F)F)[C@@H]1CO[C@@H]1CC[C@]2(c3ncc(F)cn3)C[C@@H]2C1` (single isomer, unassigned) [Example 91], the IC50 worked out at 3.3 nM. For the same compound, the Emax under setting [1] worked out at 102%.

As for `COC(=O)N1[C@H](C)C[C@H](NS(=O)(=O)CF)[C@@H]1CO[C@H]1CC[C@@]2(c3ncc(F)cn3)C[C@H]2C1` [Example 30, methyl (2R,3S,5R)-3-((fluoromethyl)sulfonamido)-2-((((1S,3S,6R)-6-(5-fluoropyrimidin-2-yl)bicyclo[4.1.0]heptan-3-yl)oxy)methyl)-5-methylpyrrolidine-1-carboxylate], the Emax under setting [1] was found to be 99.2%.

As to `C[C@@H]1C[C@H](NS(C)(=O)=O)[C@H](CO[C@H]2CC[C@@]3(c4ncc(F)cn4)C[C@H]3C2)N1C(=O)OCC1CC1(F)F` (stereo partly drawn) [Example 59, (2,2-difluorocyclopropyl)methyl (2R,3S,5R)-2-((((1S,3S,6R)-6-(5-fluoropyrimidin-2-yl)bicyclo[4.1.0]heptan-3-yl)oxy)methyl)-5-methyl-3-(methylsulfonamido)pyrrolidine-1-carboxylate], the maximal response (Emax) under setting [1] turned out to be 104%.

For `COC(=O)N1[C@@H]2COC[C@@H]2C(NS(C)(=O)=O)[C@@H]1COC1CCC2(c3ncc(F)cn3)CC2C1` (mixture of isomers) [Example 134, Methyl (2R,3aS,6aS)-2-(((6-(5-fluoropyrimidin-2-yl)bicyclo[4.1.0]heptan-3-yl)oxy)methyl)-3-(methylsulfonamido)hexahydro-1H-furo[3,4-b]pyrrole-1-carboxylate], the Emax under setting [1] was 99.7%.

For `COC(=O)N1[C@H](C)C[C@H](NS(C)(=O)=O)[C@@H]1CO[C@H]1CC[C@@]2(c3ncc(F)cn3)C[C@H]2C1` [Example 137, methyl (2R,3S,5R)-2-((((1S,3S,6R)-6-(5-fluoropyrimidin-2-yl)bicyclo[4.1.0]heptan-3-yl)oxy)methyl)-5-methyl-3-(methylsulfonamido)pyrrolidine-1-carboxylate], the Emax under setting [1] came out at 101%.

Take `COC(=O)N1[C@H](C)C[C@H](NS(=O)(=O)CF)[C@@H]1COC1CCC2(c3ncc(Cl)c(OC)n3)CC2C1` (stereo partly drawn) [Example 86, methyl (2R,3S,5R)-2-(((6-(5-chloro-4-methoxypyrimidin-2-yl)bicyclo[4.1.0]heptan-3-yl)oxy)methyl)-3-((fluoromethyl)sulfonamido)-5-methylpyrrolidine-1-carboxylate]: the Emax under setting [1] was found to be 101%.

Regarding `COC(=O)N1[C@H](C)C[C@H](NS(=O)(=O)C(C)C)[C@@H]1CO[C@@H]1CC[C@]2(c3ncc(F)cn3)C[C@@H]2C1` [Example 46, methyl (2R,3S,5R)-2-((((1R,3R,6S)-6-(5-fluoropyrimidin-2-yl)bicyclo[4.1.0]heptan-3-yl)oxy)methyl)-5-methyl-3-((1-methylethyl)sulfonamido)pyrrolidine-1-carboxylate], the Emax under setting [1] came out at 100%.

For the compound `CC(C)OC(=O)N1[C@H](C)C[C@H](NS(=O)(=O)CF)[C@@H]1COC1CCC2(c3ncc(Br)cn3)CC2C1` (stereo partly drawn) [Example 108, isopropyl (2R,3S,5R)-2-(((6-(5-bromopyrimidin-2-yl)bicyclo[4.1.0]heptan-3-yl)oxy)methyl)-3-((fluoromethyl)sulfonamido)-5-methylpyrrolidine-1-carboxylate], under setting [1], the Emax stood at 105%.

With `COC(=O)N1[C@H](C)C[C@H](NS(=O)(=O)N(C)C)[C@@H]1COC1CCC2(c3cnccn3)CC2C1` (stereo partly drawn) [Example 10, methyl (2R,3S,5R)-3-((N,N-dimethylsulfamoyl)amino)-5-methyl-2-(((6-(pyrazin-2-yl)bicyclo[4.1.0]heptan-3-yl)oxy)methyl)pyrrolidine-1-carboxylate], under setting [1], the Emax was determined as 85.6%.

As for `CCS(=O)(=O)N[C@H]1C[C@@H](C(F)F)N(C(=O)OC)[C@H]1CO[C@H]1CC[C@@]2(c3ncc(Cl)cn3)C[C@H]2C1` (single isomer, unassigned) [Example 114], the IC50 turned out to be 1.4 nM. Under setting [1], the Emax stood at 98.6%.

Take `COC(=O)N1[C@H](C)C[C@H](NS(=O)(=O)CC(C)C)[C@@H]1CO[C@H]1CC[C@@]2(c3ncc(F)cn3)C[C@H]2C1` [Example 35, methyl (2R,3S,5R)-2-((((1S,3S,6R)-6-(5-fluoropyrimidin-2-yl)bicyclo[4.1.0]heptan-3-yl)oxy)methyl)-5-methyl-3-((2-methylpropyl)sulfonamido)pyrrolidine-1-carboxylate]: the maximal effect (Emax) under setting [1] was 101%.

As for `C[C@@H]1C[C@H](NS(C)(=O)=O)[C@H](CO[C@H]2CC[C@@]3(c4ncc(F)cn4)C[C@H]3C2)N1C(=O)O[C@H]1COC[C@@H]1F` [Example 56, (3S,4S)-4-fluorotetrahydrofuran-3-yl (2R,3S,5R)-2-((((1S,3S,6R)-6-(5-fluoropyrimidin-2-yl)bicyclo[4.1.0]heptan-3-yl)oxy)methyl)-5-methyl-3-(methylsulfonamido)pyrrolidine-1-carboxylate], under setting [1], the Emax was 104%.

With `COC(=O)N1[C@H](C)C[C@H](NS(C)(=O)=O)[C@@H]1COC1CCC2(c3ncc(F)c(C)n3)CC2C1` (stereo partly drawn) [Example 77, methyl (2R,3S,5R)-2-(((6-(5-fluoro-4-methylpyrimidin-2-yl)bicyclo[4.1.0]heptan-3-yl)oxy)methyl)-5-methyl-3-(methylsulfonamido)pyrrolidine-1-carboxylate], under setting [1], the Emax came out at 74.5%.

The values are drawn from patent US11680060B2, “Bicycloheptane pyrrolidine orexin receptor agonists” (Merck Sharp & Dohme LLC, priority 2020, dated 2023).
